Test results reported in US20050261282A1, “Treatment of basal ganglia-related movement disorders with 2,3-benzodiazepines” (Motac Neuroscience Limited Williams House, priority 2002, published 2005).
Counter-ions that a name gives are not always drawn.

Experiments:
[1] = cited from earlier work
MPTP-lesioned marmoset [2] = assay: Parkinsonian disability (mobility score) in the MPTP-lesioned marmoset model of Parkinson's disease; format: in vivo, Marmosets (Callithrix jacchus); conditions: Tofisopam 5-20 mg/kg oral with L-DOPA 15-17.5 mg/kg oral; mobility score 0-9, every 30 minutes for 4 hours; FIGS. 4 and 5
Protocol: The effect of Tofisopam on L-DOPA-induced dyskinesia was assessed in the MPTP-lesioned marmoset model of Parkinson's disease. 1.1.1 Preparation of MPTP-lesioned marmoset model of Parkinson's disease Marmosets (Callithrix jacchus) (bred in a closed colony at the University of Manchester) were rendered parkinsonian by subcutaneous injection of 2 mg kgl MPTP for 5 consecutive days. The marmosets were allowed to recover for a minimum of 10 weeks until their parkinsonism became stable. The degree of activity and disability before and after MPTP treatment was assessed using a combination of scales as described in section 1.1.2. Animals were then treated with L-DOPA for at least 3 weeks to prime them to elicit dyskinesia. […] The behavioural tests were assessed every 30 minutes for 4 hours, by post hoc analysis of video-recordings by an observer blinded to the treatment. […]

MPTP-lesioned marmoset [3] = assay: L-DOPA-induced dyskinesia score in the MPTP-lesioned marmoset model of Parkinson's disease; format: in vivo, Marmosets (Callithrix jacchus); conditions: Tofisopam 5-20 mg/kg oral with L-DOPA 15-17.5 mg/kg oral; dyskinesia score 0-4, every 30 minutes for 4 hours; FIGS. 4 and 5
Protocol: The effect of Tofisopam on L-DOPA-induced dyskinesia was assessed in the MPTP-lesioned marmoset model of Parkinson's disease. 1.1.1 Preparation of MPTP-lesioned marmoset model of Parkinson's disease Marmosets (Callithrix jacchus) (bred in a closed colony at the University of Manchester) were rendered parkinsonian by subcutaneous injection of 2 mg kgl MPTP for 5 consecutive days. The marmosets were allowed to recover for a minimum of 10 weeks until their parkinsonism became stable. The degree of activity and disability before and after MPTP treatment was assessed using a combination of scales as described in section 1.1.2. Animals were then treated with L-DOPA for at least 3 weeks to prime them to elicit dyskinesia. (c) Dyskinesia—non-parametric measures based on the following scale: Dyskinesia score: 0=Absent, 1=Mild, fleeting, 2=Moderate, not interfering with normal activity, 3=Marked, at times interfering with normal activity, 4=Severe, continuous, replacing normal activity. The behavioural tests were assessed every 30 minutes for 4 hours, by post hoc analysis of video-recordings by an observer blinded to the treatment. Marmosets received all treatments as described in Table 1. The treatments were randomised such that on each day all marmosets received one of the treatments. There was at least 48 hours washout between treatments. [table]

SMILES | solubility in water [1] | solubility in alcohol ([1]; alcohol) | antiparkinsonian action of L-DOPA (parkinsonian disability) (MPTP-lesioned marmoset [2]) | severity of L-DOPA-induced dyskinesia (MPTP-lesioned marmoset [3])
CCN(CC)CCNC(=O)c1cc(Cl)c(N)cc1OC [Metoclopramide hydrochloride, 4-amino-5-chloro-N-[2-(diethylamino)ethyl]-2-methoxy benzamide monohydrochloride monohydrate] | freely soluble in water | – | – | –
N[C@@H](Cc1ccc(O)c(O)c1)C(=O)O [levodopa, (−)-3-(3,4-dihydroxy-phenyl)-L-alanine] | slightly soluble in water | insoluble in alcohol | – | –
CCC1C(C)=NN=C(c2ccc(OC)c(OC)c2)c2cc(OC)c(OC)cc21 (centres unmarked) [Tofisopam] | – | – | without affecting the antiparkinsonian action | reduces the severity of L-DOPA-induced dyskinesia
